Assays:
[1] = test system: p38 MAPKs or JNKs; conditions: Kuma, Y. (2005); cited from earlier work
[2] = test system: THP-1 cells; test: LPS-induced TNF alpha release in THP-1 cells; format: cell-based; conditions: Homo sapiens, THP-1; Table 3; read-out: THP-1 (LPS) TNFα IC50
Experimental: LPS-Induced TNF Alpha Release in THP-1 Cells: Potency […] Coli; O111:B4, Sigma) for 4 hr and the supernatant collected for determination of TNFα concentration by sandwich ELISA (Duo-set, R&D systems). The inhibition of TNFα production was calculated at each concentration by comparison with vehicle control.

[3] = test system: mice; test: LPS-induced neutrophils accumulation in mice; format: in vivo
[4] = test system: Differentiated U937 cells; test: MTT assay (cell viability); format: cell-based, human; conditions: loss of cell viability at 1 μg/ml
Outline: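 Differentiated U937 cells pre-incubated with compound 4 h in 5% FCS or 24 h in 10% FCS; MTT read at 550 nm after DMSO solubilisation. Percentage loss of viability relative to 0.5% DMSO vehicle; apparent increases appear as negative percentages.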

[5] = test system: U937 cells; test: LPS-induced IL-8 release in U937 cells; format: cell-based; conditions: Homo sapiens; Table 3; read-out: DU937 (LPS) IL-8 IC50
Outline: (§1)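 U937 cells differentiated with PMA (100 ng/ml) for 48 to 72 hours, pre-treated with compound for 2 hrs, then stimulated with E. coli O111:B4 LPS for 4 hrs. Supernatant TNFα and IL-8 measured by sandwich ELISA; inhibition at each concentration versus vehicle control.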

[6] = test system: BEAS2B cells; test: Poly I:C-induced ICAM-1 induction in BEAS2B cells; format: cell-based; conditions: Homo sapiens, BEAS-2B; Table 3; read-out: BEAS2B (polyIC) ICAM1 IC50
Outline: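 Poly I:C (1 ug/ml) transfected into BEAS2B cells after 2 h compound pre-incubation. Surface ICAM-1 measured by cell-based ELISA 18 h post-transfection (HRP, OD450–655), corrected for cell number by OD595.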

[7] = test system: U937 cells; test: LPS-induced TNF alpha release in U937 cells; format: cell-based; conditions: Homo sapiens; read-out: DU937 (LPS) TNFα REC50
Outline: as §1

[8] = molecular target: T1, p38 MAPK alpha (MAPK14) (Homo sapiens, UniProt Q16539); test: Enzyme inhibition assay, p38 MAPK alpha (FRET, Z-LYTE, via MAPKAP-K2); format: biochemical; conditions: Table 3; read-out: Enzyme p38α IC50
T1 construct: purchased Invitrogen
T1 sequence (Q16539 whole entry): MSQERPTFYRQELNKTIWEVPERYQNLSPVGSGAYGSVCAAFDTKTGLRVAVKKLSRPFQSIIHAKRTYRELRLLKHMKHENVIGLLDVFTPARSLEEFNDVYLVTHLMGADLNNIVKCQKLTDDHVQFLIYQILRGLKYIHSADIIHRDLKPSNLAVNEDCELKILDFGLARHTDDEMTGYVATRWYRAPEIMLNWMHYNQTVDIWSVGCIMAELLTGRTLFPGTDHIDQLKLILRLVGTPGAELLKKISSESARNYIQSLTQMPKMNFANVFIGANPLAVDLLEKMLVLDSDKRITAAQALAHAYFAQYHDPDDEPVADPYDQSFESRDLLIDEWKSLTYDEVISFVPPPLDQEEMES

[9] = test system: Dunkin-Hartley guinea-pigs; test: Ovalbumin challenge/parainfluenza infection model; format: in vivo; conditions: nebulised 1.5 mg per day; sensitized animals treated with PIV3 medium; initial studies
[10] = test system: A/J mice; test: Cigarette smoke model; format: in vivo; conditions: 50 μg/mL (35 μl, bid) intra-nasally, cigarette smoke exposed mice
Experimental: Cigarette Smoke Model A/J mice (males, 5 weeks old) were exposed to cigarette smoke (4% cigarette smoke, diluted with compressed air) for 30 min/day for 11 days using a Tobacco Smoke Inhalation Experiment System for small animals (Model SIS-CS; Sibata Scientific Technology, Tokyo, Japan). Test substances were given intra-nasally (35 μL of solution in 50% DMSO/PBS) and therapeutically twice daily for 3 days after the final cigarette smoke exposure. Twelve hours after the last dosing, animals were anesthetized, the trachea cannulated and bronchoalveolar lavage fluid (BALF) was collected.

For Cc1ccc(-n2nc(C(C)(C)C)cc2NC(=O)Nc2ccc(OCCN3CCOCC3)c3ccccc23)cc1 [BIRB 796], the “phosphorylation of p38 MAPKs or JNKs by the upstream kinase MKK6 or MKK4” value [1] is listed as “impaired the phosphorylation of p38 MAPKs or JNKs”.

In the case of Cc1ccc(-n2nc(C(C)(C)C)cc2NC(=O)Nc2ccc(Oc3ccnc(NC(=O)N4CCOCC4)c3)c3ccccc23)cc1 [Example 42, N-(4-(4-(3-(3-tert-Butyl-1-p-tolyl-1H-pyrazol-5-yl)ureido)naphthalen-1-yloxy)pyridin-2-yl)morpholine-4-carboxamide], the IC50 [2] is reported as under 10 nM, the “Neutrophil numbers in BAL” value ([3]; 0.2 mg/ml intra tracheal, 8 hr pre-dose, BALF 8 h after LPS, mean ± SEM, n = 8) is reported as 8.60 ± 1.59 ×10^5/mL and the “DU937 (cell viability) MTT assay 4 h” value ([4]; Table 3, first MTT column) is reported as “− (<=30%)”. The “DU937 (cell viability) MTT assay 4 h” value ([4]; Table 3, second MTT column) was “− (<=30%)”, the IC50 [5] was under 5000 nM and the IC50 [6] was under 10 nM. The EC50 [7] was under 10 nM and the IC50 [8] was under 5000 nM.

With CCC(=O)O[C@]1(C(=O)SCF)[C@H](C)C[C@H]2[C@@H]3C[C@H](F)C4=CC(=O)C=C[C@]4(C)[C@@]3(F)[C@@H](O)C[C@@]21C [fluticasone propionate] the “inhibition of LPS-induced neutrophil accumulation” value ([3]; 50 μg/mL (35 μl, bid)) was over 80%, the “ovalbumin-mediated lung function changes” value [9] was “inhibited ovalbumin-mediated lung function changes” and the “macrophage accumulation into airways” value [10] was “did not inhibit”. For the same compound, the “neutrophil accumulation into airways” value [10] was “did not inhibit”.
